Legend:
[1] = target: EGFR (T790M/L858R/C797S) (Homo sapiens, UniProt P00533, C797S/L858R/T790M); assay: EGFR (T790M/L858R/C797S) kinase activity inhibition, Caliper mobility shift assay; assay type: biochemical; settings: kinase 2.5 nM, ATP 40 μM
Description: The basic method is the same as ALK activity test method 2. The test concentration of the compound starts at 2 μM, and is diluted 5 folds into 6 (7 for individual compounds) concentration points. […] Add 30 μL of stop solution containing EDTA to stop the kinase reaction. Use Caliper EZ Reader to read the conversion rate. Inhibition rate %=(Average positive control conversion rate %−Sample conversion rate %/(Average positive control conversion rate %−Average negative control conversion rate %). Among them: negative control wells represent the conversion rate readings without enzyme activity; positive control wells represent the conversion rate readings of wells without compound inhibition. Take the log value of the concentration as the X-axis, and the percentage inhibition rate on the Y-axis. Log (inhibitor) vs. response—Variable slope of analysis software GraphPad Prism 5 was used to fit the curve to obtain the IC50 value of each compound on the enzyme activity. Calculation formula: Y=Bottom+(Top−Bottom)/(1+10^((Log IC50−X)*HillSlope)).

[2] = target: MAP4K1 (HPK1) (Homo sapiens, UniProt Q92918); assay: MAP4K1 (HPK1) kinase activity inhibition, Caliper mobility shift assay; assay type: biochemical; settings: kinase 1.25 nM, ATP 10.1 μM
MAP4K1 (HPK1), sequence (Q92918 whole entry): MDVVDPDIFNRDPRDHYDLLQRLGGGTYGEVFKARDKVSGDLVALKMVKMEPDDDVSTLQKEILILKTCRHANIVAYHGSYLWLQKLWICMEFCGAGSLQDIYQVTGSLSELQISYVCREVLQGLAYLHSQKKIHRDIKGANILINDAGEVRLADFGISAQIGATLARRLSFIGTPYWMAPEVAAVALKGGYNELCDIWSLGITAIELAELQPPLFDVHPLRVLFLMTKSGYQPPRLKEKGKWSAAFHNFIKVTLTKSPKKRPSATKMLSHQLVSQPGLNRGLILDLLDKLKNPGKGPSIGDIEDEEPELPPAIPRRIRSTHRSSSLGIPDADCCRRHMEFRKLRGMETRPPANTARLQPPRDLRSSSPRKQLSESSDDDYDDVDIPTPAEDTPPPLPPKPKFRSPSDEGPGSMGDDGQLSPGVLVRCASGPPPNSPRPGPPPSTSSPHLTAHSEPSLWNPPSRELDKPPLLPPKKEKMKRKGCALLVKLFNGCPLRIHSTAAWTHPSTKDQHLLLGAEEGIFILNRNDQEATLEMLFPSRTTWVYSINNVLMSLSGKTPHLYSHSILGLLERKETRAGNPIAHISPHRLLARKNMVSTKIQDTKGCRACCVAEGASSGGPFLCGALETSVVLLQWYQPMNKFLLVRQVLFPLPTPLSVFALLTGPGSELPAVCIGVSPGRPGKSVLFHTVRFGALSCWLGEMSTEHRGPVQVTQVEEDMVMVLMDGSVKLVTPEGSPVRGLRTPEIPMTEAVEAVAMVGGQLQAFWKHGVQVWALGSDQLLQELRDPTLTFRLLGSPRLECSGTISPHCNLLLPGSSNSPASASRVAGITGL
Description: 4. MAP4K1 (HPK1) Kinase Activity Inhibition Experiment: Caliper mobility shift assay was used to detect the inhibitory effect of the compound on MAP4K1 (HPK1) kinase activity. The test concentration of the compound starts at 500 nM, and is diluted 5 folds into 5 concentration points. Use a dispenser Echo 550 to transfer 250 nL 100-fold final concentration of the compound to the target plate 3573, add 10 μL of MAP4K1 (HPK1) kinase solution with a final concentration of 1.25 nM, and incubate for 10 minutes at room temperature (the negative control well contains 10 μL kinase buffer and 250 nL 100% DMSO; the positive control well contains 10 μL kinase solution and 250 nL 100% DMSO). On the kinase MAP4K1 (HPK1), add 15 μL of ATP with a final concentration of 10.1 μM and 3 μM substrate peptide No. 25 mixed solution to react for 120 minutes. Add 30 μL of stop solution containing EDTA to stop the kinase reaction. Use Caliper EZ Reader to read the conversion rate. Inhibition rate %=(Average positive control conversion rate %−Sample conversion rate %/(Average positive control conversion rate %−Average negative control conversion rate %). Among them: negative control wells represent the conversion rate readings without enzyme activity; positive control wells represent the conversion rate readings of wells without compound inhibition. Take the log value of the concentration as the X-axis, and the percentage inhibition rate on the Y-axis. Log (inhibitor) vs. response—Variable slope of analysis software GraphPad Prism 5 was used to fit the curve to obtain the IC50 value of each compound on the enzyme activity. Calculation formula: Y=Bottom+(Top−Bottom)/(1+10 ^((Log IC50−X)*HillSlope)).

[3] = target: Ba/F3_EGFR del19/T790M/C797S cells (Homo sapiens, UniProt P00533, T790M/C797S, cells depend on it, form not given); assay: Ba/F3_EGFR (del19-T790M-C797S) cell proliferation inhibition, CTG, method 1; assay type: cell-based; settings: 700 cells/well, 72 h, read-out: Ba/F3_EGFR (del19-T790M-C797S) cell proliferation inhibition (IC50 value) Method 1
Ba/F3_EGFR del19/T790M/C797S cells, sequence (P00533 with tags, fused parts or gaps DEL746-750/T790M/C797S, form open): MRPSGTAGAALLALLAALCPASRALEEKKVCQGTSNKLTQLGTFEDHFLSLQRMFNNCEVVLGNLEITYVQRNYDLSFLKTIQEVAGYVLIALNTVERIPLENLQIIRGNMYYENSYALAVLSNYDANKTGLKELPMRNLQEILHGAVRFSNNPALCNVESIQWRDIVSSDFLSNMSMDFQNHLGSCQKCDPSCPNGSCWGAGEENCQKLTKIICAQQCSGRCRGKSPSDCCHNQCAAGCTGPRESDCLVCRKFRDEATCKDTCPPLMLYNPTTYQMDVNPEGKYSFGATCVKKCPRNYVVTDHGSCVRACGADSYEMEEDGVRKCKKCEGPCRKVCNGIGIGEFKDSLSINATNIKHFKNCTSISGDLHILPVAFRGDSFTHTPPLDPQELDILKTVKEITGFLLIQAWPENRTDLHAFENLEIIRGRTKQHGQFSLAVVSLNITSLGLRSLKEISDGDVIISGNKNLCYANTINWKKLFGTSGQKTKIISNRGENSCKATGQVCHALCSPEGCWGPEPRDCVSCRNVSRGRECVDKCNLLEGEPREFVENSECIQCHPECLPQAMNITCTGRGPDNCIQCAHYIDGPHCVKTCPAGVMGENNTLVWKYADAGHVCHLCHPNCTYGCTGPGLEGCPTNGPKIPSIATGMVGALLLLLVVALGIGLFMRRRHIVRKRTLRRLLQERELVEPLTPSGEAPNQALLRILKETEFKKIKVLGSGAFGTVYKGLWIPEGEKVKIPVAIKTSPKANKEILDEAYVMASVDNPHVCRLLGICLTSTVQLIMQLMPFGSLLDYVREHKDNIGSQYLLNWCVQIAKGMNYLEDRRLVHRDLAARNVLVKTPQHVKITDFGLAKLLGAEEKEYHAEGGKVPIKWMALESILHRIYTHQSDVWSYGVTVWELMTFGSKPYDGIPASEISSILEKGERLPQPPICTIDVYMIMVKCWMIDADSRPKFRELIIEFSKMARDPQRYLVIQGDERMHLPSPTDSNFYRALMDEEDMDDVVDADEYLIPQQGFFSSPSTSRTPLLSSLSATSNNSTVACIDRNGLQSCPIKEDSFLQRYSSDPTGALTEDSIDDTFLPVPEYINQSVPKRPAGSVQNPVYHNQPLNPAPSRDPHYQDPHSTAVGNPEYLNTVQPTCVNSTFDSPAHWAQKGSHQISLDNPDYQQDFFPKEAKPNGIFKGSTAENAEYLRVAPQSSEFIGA
Description: The cells were cultured in a 37° C., 5% CO2 incubator.
Cell plating and compound treatment: 1) Cells are routinely cultured until the cell saturation is 80%-90%, and when the number reaches the requirement, the cells are collected. 2) Resuspend in the corresponding fresh medium, take a small amount of cells to count, and prepare a cell suspension with a suitable density. 3) Inoculate the cell suspension into a 384-well plate at 700 cells/well, 30 μL per well. 4) Use Echo to add the compound to the corresponding cell well. The maximum starting concentration of the compound is 1-10 μM, 3 folds dilution, 8 concentrations.
CTG method detection: 1) Add 30 μL of CTG reagent (CelltiterGlo kit) to each well, and let it stand for 30 minutes at 37° C. and 5% CO2 in the dark. 2) Use Envision instrument to read the chemiluminescence signal value.
Data analysis: IC50 results are analyzed by GraphPad Prism 6 software. […] X: log value of compound concentration; Y: inhibition rate (% inhibition); inhibition rate (% inhibition)=(blank control well reading−compound well reading)/(blank control well reading−positive control reading)×100.

[4] = target: EGFR (C797S) (Homo sapiens, UniProt P00533, C797S); assay: EGFR (C797S) kinase activity inhibition, Lantha screen Assay; assay type: biochemical; settings: kinase 10 nM, ATP 0.1 μM
EGFR (C797S), sequence (P00533 25-1210 C797S): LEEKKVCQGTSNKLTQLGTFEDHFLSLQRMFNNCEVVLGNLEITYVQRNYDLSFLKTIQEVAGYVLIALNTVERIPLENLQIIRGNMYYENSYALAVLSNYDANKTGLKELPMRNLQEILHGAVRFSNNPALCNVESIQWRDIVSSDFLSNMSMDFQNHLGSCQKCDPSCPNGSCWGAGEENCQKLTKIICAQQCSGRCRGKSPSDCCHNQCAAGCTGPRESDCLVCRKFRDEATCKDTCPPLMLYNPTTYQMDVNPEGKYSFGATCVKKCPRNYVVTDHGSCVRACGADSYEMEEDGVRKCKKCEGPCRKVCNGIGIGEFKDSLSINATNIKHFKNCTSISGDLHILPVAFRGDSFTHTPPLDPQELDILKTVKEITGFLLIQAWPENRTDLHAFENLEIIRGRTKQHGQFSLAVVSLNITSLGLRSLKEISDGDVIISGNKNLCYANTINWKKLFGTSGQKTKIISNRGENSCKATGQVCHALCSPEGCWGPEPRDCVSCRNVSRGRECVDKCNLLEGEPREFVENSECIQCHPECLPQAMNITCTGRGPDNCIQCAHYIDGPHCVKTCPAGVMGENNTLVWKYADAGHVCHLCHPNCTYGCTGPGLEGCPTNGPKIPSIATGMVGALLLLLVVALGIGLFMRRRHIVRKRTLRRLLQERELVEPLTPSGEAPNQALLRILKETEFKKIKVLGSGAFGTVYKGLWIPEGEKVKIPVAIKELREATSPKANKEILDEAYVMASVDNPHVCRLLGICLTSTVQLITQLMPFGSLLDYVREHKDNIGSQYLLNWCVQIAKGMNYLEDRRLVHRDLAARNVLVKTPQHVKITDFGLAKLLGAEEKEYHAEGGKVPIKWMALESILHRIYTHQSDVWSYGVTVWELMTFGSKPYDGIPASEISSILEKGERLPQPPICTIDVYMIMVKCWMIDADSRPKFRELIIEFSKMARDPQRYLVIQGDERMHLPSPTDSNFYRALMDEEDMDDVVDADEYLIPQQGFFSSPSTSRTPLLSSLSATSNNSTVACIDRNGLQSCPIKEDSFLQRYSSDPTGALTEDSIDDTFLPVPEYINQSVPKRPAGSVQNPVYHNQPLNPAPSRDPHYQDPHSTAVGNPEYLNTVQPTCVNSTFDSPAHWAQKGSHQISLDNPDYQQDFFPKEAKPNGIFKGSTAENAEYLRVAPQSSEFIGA
Description: 1. EGFR (C797S) Kinase Activity Inhibition Experiment: The Lantha screen Assay method was used to test the inhibitory activity of the compounds at a kinase EGFR (C797S) concentration of 10 nM and an ATP concentration of 0.1 μM. The control samples were Staurosporine. Experimental Steps: […] 2) Control sample Staurosporine and test samples preparation: Staurosporine and the compounds of the embodiment of the present invention are formulated into a gradient concentration solution in 100% DMSO, and diluted to 10% DMSO with the above-mentioned buffer, and added to a 384-well plate. For example, if the initial concentration of the compound is 10 μM, 100% DMSO is used to prepare a 1000 μM solution, and 10 concentration gradients are diluted, and 100 nL solution is transferred to a 384-well plate with Echo*LIQUID HANDLE RS (LABCYTE, USA). […] Transfer 5 μL to the 384-well plate and incubate with the compound for 10-15 minutes. […] Transfer 5 μL to the 384-well plate to initiate the reaction, and incubate at room temperature for 30 minutes. [table] 5) Use TR-Fret dilution buffer to prepare 2-fold detection solution. The final concentration of Antibody is 2 nM and the final concentration of EDTA is 10 mM. Transfer 10 μL of detection solution to the reaction wells of the 384-well plate, shake and mix, and incubate at room temperature for 60 min. 6) Read the ratio of excitation at 340 nm and emission at 520 nm to 495 nm on Envision, and calculate the inhibition rate. 7) Fit IC50 with XL-fit software.

[5] = target: ALK (Homo sapiens, UniProt Q9UM73); assay: ALK kinase activity inhibition, Caliper mobility shift assay, method 1; assay type: biochemical
Description: 2. ALK Kinase Activity Inhibition Experiment: Method 1: In vitro enzymatic activity of ALK was measured using Caliper mobility shift assay. […] Add 10 μL of 2.5-fold enzyme solution and incubate at room temperature for 10 minutes, then add 10 μL of 2.5-fold substrates (Peptide FAM-P22 and ATP) solution. […] Read conversion rate data on Caliper EZ Reader II (Caliper Life Sciences). Convert the conversion rate into inhibition rate (% inhibition=(max−conversion rate)/(max−min)*100). Max refers to the conversion rate of the DMSO control, and min refers to the conversion rate without enzyme activity. With the compound concentration and inhibition rate on the abscissa and ordinate, draw the curve, use XLFit excel add-in version 5.4.0.8 software to fit the curve and calculate the IC50.

[6] = Pharmacokinetic study in rats after intragastrical administration; assay type: in vivo; settings: male, rat, plasma, po, SD rats, 3 mg/kg
Description: Example 55: Pharmacokinetic Study in Rats
Instruments: XEVO TQ-S LC/MS instrument produced by Waters. All measurement data is collected and processed by Masslynx V4.1 software, and the data is calculated and processed by Microsoft Excel. Using WinNonLin 8.0 software, the statistical moment method was used to calculate the pharmacokinetic parameters. Mainly include kinetic parameters Tmax, T1/2, Cmax, AUClast etc. […] Injection volume: 5 μL.
Animals: 3 male SD rats with a weight range of 200-220 g. After purchase, they will be kept in the laboratory of the Experimental Animal Center for 2 days and then used. They will be fasted for 12 hours predose and 4 hours after dosing. Drinking water is free during the test. After the rats were gavage, blood samples were taken according to the established time point.
Solvent: 0.5% Methylcellulose (aqueous solution containing 0.4% Tween 80 and 1% ethanol). Preparation of the solution for intragastrical administration: accurately weigh the compound, add it to the solvent, and ultrasonically at room temperature for 5 minutes to completely dissolve the drug, and prepare a 0.3 mg/ml medicinal solution.
Pharmaceutical samples: representative compounds of the structure shown in the patented formula (I) of the present invention, generally, multiple samples with similar structures (with a molecular weight difference of more than 2 units) are taken, accurately weighed, and administered together (cassette PK). In this way, multiple compounds can be screened at the same time and their oral absorption rates can be compared. A single administration was also used to study the pharmacokinetics of the drug sample in rats.
After intragastrical administration, blood was taken from the orbit at 0.25, 0.5, 1, 2, 4, 9, 12 and 24 hours, and placed in a plastic centrifuge tube pretreated with sodium heparin. After centrifugation, the supernatant plasma was used for LC-MS/MS analysis.
Accurately weigh the compounds to prepare different concentrations, perform quantitative analysis on mass spectrometry to establish a standard curve, and then test the concentration of the above-mentioned compound in the plasma to obtain the compound concentration at different time points. All measurement data are collected and processed by relevant software, and the statistical moment method is used to calculate the pharmacokinetic parameters (mainly including kinetic parameters Tmax, T1/2, Cmax, AUClast etc). The results are as follows:
Table 7: Pharmacokinetic Parameters of the Compounds after Intragastrical Administration in SD Rats

EGFR (T790M/L858R/C797S), sequence (P00533 25-1210 T790M/C797S/L858R): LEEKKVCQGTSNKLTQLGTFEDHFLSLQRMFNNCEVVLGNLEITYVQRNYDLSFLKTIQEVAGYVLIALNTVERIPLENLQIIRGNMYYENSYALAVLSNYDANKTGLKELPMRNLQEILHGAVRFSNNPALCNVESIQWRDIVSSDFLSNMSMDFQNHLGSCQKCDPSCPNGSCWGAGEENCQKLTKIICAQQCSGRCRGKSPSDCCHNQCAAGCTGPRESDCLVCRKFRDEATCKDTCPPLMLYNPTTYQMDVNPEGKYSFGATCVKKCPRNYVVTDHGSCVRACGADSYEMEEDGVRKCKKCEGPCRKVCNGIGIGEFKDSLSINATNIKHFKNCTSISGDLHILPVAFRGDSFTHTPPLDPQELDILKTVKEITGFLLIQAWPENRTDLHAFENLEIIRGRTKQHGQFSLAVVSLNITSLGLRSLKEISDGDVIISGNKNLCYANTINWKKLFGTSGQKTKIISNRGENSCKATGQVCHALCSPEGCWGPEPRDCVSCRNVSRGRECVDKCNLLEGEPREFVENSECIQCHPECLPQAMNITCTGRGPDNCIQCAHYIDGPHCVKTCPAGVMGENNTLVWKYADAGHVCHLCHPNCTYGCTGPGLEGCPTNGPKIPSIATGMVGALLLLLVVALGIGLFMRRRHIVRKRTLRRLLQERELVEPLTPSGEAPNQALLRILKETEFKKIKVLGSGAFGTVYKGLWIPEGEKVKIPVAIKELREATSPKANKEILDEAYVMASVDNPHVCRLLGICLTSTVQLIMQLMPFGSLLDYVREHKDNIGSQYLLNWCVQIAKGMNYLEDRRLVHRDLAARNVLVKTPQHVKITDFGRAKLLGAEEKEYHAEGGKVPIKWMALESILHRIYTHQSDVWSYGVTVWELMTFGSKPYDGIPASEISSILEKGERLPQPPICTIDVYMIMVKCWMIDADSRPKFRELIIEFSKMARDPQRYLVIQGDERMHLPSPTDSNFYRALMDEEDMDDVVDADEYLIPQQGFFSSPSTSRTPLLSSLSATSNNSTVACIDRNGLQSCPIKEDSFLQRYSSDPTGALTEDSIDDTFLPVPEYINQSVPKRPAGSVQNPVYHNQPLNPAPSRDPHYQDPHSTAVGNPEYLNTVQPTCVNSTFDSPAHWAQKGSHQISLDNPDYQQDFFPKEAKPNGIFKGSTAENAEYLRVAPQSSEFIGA

Q: With `C=CC(=O)N1CCC(N2CCN3c4ccc(Nc5ncc(Cl)c(Nc6ccccc6P(C)(C)=O)n5)cc4OC[C@H]3C2)CC1` [Compound 22R] as the compound, how does the IC50 [1] read?
A: Its IC50 is 3 to 15 nM.

Q: And the IC50 [2]?
A: Its IC50 is ≤ 1 nM.

Q: What about the GI50 [3] of the same compound?
A: The GI50 was < 20 nM.

Q: Which IC50 [4] does the source give for `CP(C)(=O)c1ccccc1Nc1nc(Nc2ccc3c(c2)OC[C@H]2COCCN32)ncc1Cl` [Compound 12R] here?
A: The IC50 was 50 to 250 nM.

Q: What about the IC50 [5] of the same compound?
A: Its IC50 is 50 to 250 nM.

Q: And the IC50 [2]?
A: The IC50 was ≤ 1 nM.

Q: And the GI50 [3]?
A: The GI50 was 20 to 100 nM.

Q: Which IC50 [4] does the source give for `CP(C)(=O)c1ccccc1Nc1nc(Nc2ccc3c(c2)OC[C@H]2CN(c4ccccc4)CCN32)ncc1Cl` [Compound 16R] here?
A: The IC50 was 50 to 250 nM.

Q: What about the IC50 [5] of the same compound?
A: Its IC50 is 50 to 250 nM.

Q: What about the IC50 [1] of the same compound?
A: The IC50 was 15 to 100 nM.

Q: What about the IC50 [2] of the same compound?
A: Its IC50 is 1 to 10 nM.

Q: For `Cc1cc(Nc2ncc(Cl)c(Nc3ccccc3P(C)(C)=O)n2)cc2c1N1CCNC[C@H]1CO2` [Compound 23S], which IC50 [1] is on record?
A: Its IC50 is < 3 nM.

Q: And the IC50 [2]?
A: The IC50 was ≤ 1 nM.

Q: What about the GI50 [3] of the same compound?
A: Its GI50 is < 20 nM.

Q: Which results are given for `CN(C)C/C=C/C(=O)N1CCN2c3ccc(Nc4ncc(Cl)c(Nc5ccccc5P(C)(C)=O)n4)cc3OC[C@H]2C1` [Compound 18R]?
A: IC50 [1]: < 3 nM; IC50 [2]: ≤ 1 nM; GI50 [3]: 100 to 200 nM

Q: Which IC50 [1] does the source give for `Cc1cc(Nc2ncc(Cl)c(Nc3ccccc3P(C)(C)=O)n2)cc2c1OC[C@H]1CNCCN21` [Compound 24R] here?
A: Its IC50 is 3 to 15 nM.

Q: What about the IC50 [2] of the same compound?
A: The IC50 was 1 to 10 nM.

Q: What about the GI50 [3] of the same compound?
A: Its GI50 is 20 to 100 nM.

Q: Which IC50 [1] does the source give for `CC(=O)N1CCC(N2CCN3c4c(C)cc(Nc5ncc(Cl)c(Nc6ccccc6P(C)(C)=O)n5)cc4OC[C@@H]3C2)CC1` [Compound 32S] here?
A: The IC50 was < 3 nM.

Q: What about the IC50 [2] of the same compound?
A: The IC50 was ≤ 1 nM.

Q: What about the GI50 [3] of the same compound?
A: Its GI50 is 20 to 100 nM.

Q: What about the Cmax [6] of the same compound?
A: Its Cmax is 352 ng/mL.

Q: What about the Tmax [6] of the same compound?
A: The Tmax was 3.33 h.

Q: What about the half-life [6] of the same compound?
A: Its half-life is 2.22 h.

Q: And the AUC(0-t) ([6]; read-out: AUC0-24 h)?
A: The AUC(0-t) was 3260 ng·h/mL.
